Measurements: article PMC9611952, “Structural Aspects and Intermolecular Energy for Some Short Testosterone Esters” (Materials, 2022)
≈ marks a conversion by molar mass, not a printed value. Where two headings read alike, the source gives them in different places.

Assays:
[1] = Solubility check in organic oil solutions (78% oil, 20% benzyl benzoate, 2% benzyl alcohol); type: physicochemical; details: 25 °C; for solubility: oil or lipid, thermodynamic from solid, average of three; for solubility compared among the four esters (in words): oil solutions, comparison with the acetate ester
Procedure: The solubility for the four esters (mg/mL) was measured in solutions of various organic oils: medium-chain triglyceride (MCT), grape seed oil (GSO), castor oil, cottonseed oil, apricot oil, and sesame oil.
Each solution was composed of a mixture of benzyl benzoate, benzyl alcohol, and oil having a volumetric ratio of 78% oil, 20% benzyl benzoate, and 2% benzyl alcohol. In various pharmaceutical preparations of lipophilic compounds, including various steroids, benzyl benzoate is used as a solubiliser (co-solvent), benzyl alcohol acts as a solvent and at the same time prevents microbial growth and increases the lipid solubility of various esterified compounds, while the oils are used as carriers.
In order to obtain good accuracy, three such procedures were carried out, and their average was used.

[2] = cited from earlier work
[3] = set-up: method as in PMID 8095531; details: microemulsion study, cited from earlier work
[4] = apricot oil / benzyl benzoate / benzyl alcohol solution, apricot oil 78% / benzyl benzoate 20% / benzyl alcohol 2%, read-out: Solubility APRICOT
[5] = castor oil / benzyl benzoate / benzyl alcohol solution, castor oil 78% / benzyl benzoate 20% / benzyl alcohol 2%, read-out: Solubility CASTOR
[6] = cottonseed oil / benzyl benzoate / benzyl alcohol solution, cottonseed oil 78% / benzyl benzoate 20% / benzyl alcohol 2%, read-out: Solubility COTTON
[7] = grape seed oil / benzyl benzoate / benzyl alcohol solution, grape seed oil 78% / benzyl benzoate 20% / benzyl alcohol 2%, read-out: Solubility GSO
[8] = medium-chain triglyceride 78% / benzyl benzoate 20% / benzyl alcohol 2%, read-out: Solubility MCT
[9] = sesame oil / benzyl benzoate / benzyl alcohol solution, sesame oil 78% / benzyl benzoate 20% / benzyl alcohol 2%, read-out: Solubility SESAME
[10] = esterified forms of testosterone, intramuscular injections

CC(=O)OC1CCC2C3CCC4=CC(=O)CCC4(C)C3CCC12C (stereo not drawn) [TAce, Androst-4-en-17β-ol-3-one 17β-acetate] showed a solubility [1, 4] of 82.5 mg/mL (≈ 250 mM), a solubility [1, 5] of 162 mg/mL (≈ 491 mM) and a solubility [1, 6] of 98.8 mg/mL (≈ 299 mM). The solubility [1, 7] was 98.8 mg/mL (≈ 299 mM), the solubility [1, 8] was 120 mg/mL (≈ 365 mM) and the “solubility compared among the four esters (in words)” value [1] was “lowest solubility”. For the same molecule, the solubility [1, 9] was 99 mg/mL (≈ 300 mM), the “Half-life (days)” value ([2]; column of Table S2) was “less than one day” and the half-life [2, 10] was “less than 1 days”.

In the case of CC(C)CCC(=O)OC1CCC2C3CCC4=CC(=O)CCC4(C)C3CCC12C (stereo not drawn) [TIso, Androst-4-en-17β-ol-3-one 17β-4-methylpentanoate], the “solubility compared among the four esters (in words)” value [1] is listed as “roughly four-fold greater solubility” and the half-life [2, 10] is listed as 74.4 h.

In the case of CC12CCC(=O)C=C1CCC1C2CCC2(C)C(OC(=O)CCc3ccccc3)CCC12 (stereo not drawn) [TPhp, Androst-4-en-17β-ol-3-one 17β-phenylpropionate], the half-life [2, 10] is given as 60 h.

Molecule CCC(=O)O[C@H]1CC[C@H]2[C@@H]3CCC4=CC(=O)CC[C@]4(C)[C@H]3CC[C@]12C [TPro, Androst-4-en-17β-ol-3-one 17β-propionate] has a solubility [1, 4] of 127 mg/mL (≈ 370 mM), a solubility [1, 5] of 194 mg/mL (≈ 564 mM) and a solubility [1, 6] of 174 mg/mL (≈ 505 mM). The solubility [1, 7] was 152 mg/mL (≈ 442 mM), the solubility [1, 8] was 185 mg/mL (≈ 538 mM) and the solubility [1, 9] was 189 mg/mL (≈ 548 mM). For the same molecule, the “half-life” value ([2]; column of Table S2) was 24 h, the half-life [2, 10] was 24 h and the “concentration obtained in dimethoxytetraethylene glycol” value (from here on “concentration obtained”) [3] was 12000 µg/mL. The “concentration supported in soybean oil” value [3] was 3420 µg/mL.

In the case of CC(=O)O[C@]1(C(C)=O)CC[C@H]2[C@@H]3C[C@H](C)C4=CC(=O)CC[C@]4(C)[C@H]3CC[C@@]21C [medroxyprogesterone acetate], the “concentration obtained” value [3] is listed as 1320 µg/mL and the “concentration supported in soybean oil” value [3] is listed as 2160 µg/mL.

For C[C@]12CC[C@H]3[C@@H](CCC4=CC(=O)CC[C@@]43C)[C@@H]1CC[C@@H]2O [testosterone base, 17β-hydroxyandrost-4-en-3-one], the half-life ([2]; testosterone base (no ester)) is given as “a few hours”.

In the case of CCCCCCC(=O)O[C@H]1CC[C@H]2[C@@H]3CCC4=CC(=O)CC[C@]4(C)[C@H]3CC[C@]12C [testosterone enanthate], the “concentration obtained” value [3] is given as 91200 µg/mL and the “concentration supported in soybean oil” value [3] is given as 31500 µg/mL.
